Reference: patent publication US10150771B2, “Triazolopyrazinones as PDE1 inhibitors” (H. Lundbeck A/S, priority 2014, dated 2018)

Columns and labels:
Assay type in all cases: biochemical
PDE1C = PDE1C (Homo sapiens, UniProt Q14123); assay: PDE1 inhibition assay (SPA), PDE1C; details: for IC50: concentration required to reach 50% inhibition of the enzyme, 15 nM tritium labelled cAMP, read-out: PDE1C inhibition (nM or %): IC50; for PDE1C inhibition (nM or %): % inhib: % inhibition of the enzyme at a concentration of 10 micro molar of the compound
Description: (§1) PDE1 Inhibition Assay PDE1A, PDE1B and PDE1C assays were performed as follows: the assays were performed in 60 μL samples containing a fixed amount of the PDE1 enzym1 (sufficient to convert 20-25% of the cyclic nucleotide substrate), a buffer (50 mM HEPES pH 7.6; 10 mM MgCl2; 0.02% Tween20), 0.1 mg/ml BSA, 15 nM tritium labelled cAMP and varying amounts of inhibitors. Reactions were initiated by addition of the cyclic nucleotide substrate, and reactions were allowed to proceed for 1 h at room temperature before being terminated through mixing with 20 μL (0.2 mg) yttrium silicate SPA beads (PerkinElmer). The beads were allowed to settle for 1 h in the dark before the plates were counted in a Wallac 1450 Microbeta counter. The measured signals were converted to activity relative to an uninhibited control (100%) and IC50 values were calculated using XIFit (model 205, IDBS).

PDE1B = PDE1B (Homo sapiens, UniProt Q01064); assay: PDE1 inhibition assay (SPA), PDE1B; details: for IC50: concentration required to reach 50% inhibition of the enzyme, 15 nM tritium labelled cAMP, read-out: PDE1B inhibition (nM or %): IC50; for inhibition at 10 µM: 1 h, % inhibition of the enzyme at a concentration of 10 micro molar of the compound, read-out: PDE1B inhibition (nM or %): % inhib
Description: as §1

PDE1A = PDE1A (Homo sapiens, UniProt P54750); assay: PDE1 inhibition assay (SPA), PDE1A; details: for IC50: concentration required to reach 50% inhibition of the enzyme, 15 nM tritium labelled cAMP, read-out: PDE1A inhibition (nM or %): IC50; for inhibition at 10 µM: 1 h, % inhibition of the enzyme at a concentration of 10 micro molar of the compound, read-out: PDE1A inhibition (nM or %): % inhib
Description: as §1

Sequence of PDE1A (P54750 whole entry): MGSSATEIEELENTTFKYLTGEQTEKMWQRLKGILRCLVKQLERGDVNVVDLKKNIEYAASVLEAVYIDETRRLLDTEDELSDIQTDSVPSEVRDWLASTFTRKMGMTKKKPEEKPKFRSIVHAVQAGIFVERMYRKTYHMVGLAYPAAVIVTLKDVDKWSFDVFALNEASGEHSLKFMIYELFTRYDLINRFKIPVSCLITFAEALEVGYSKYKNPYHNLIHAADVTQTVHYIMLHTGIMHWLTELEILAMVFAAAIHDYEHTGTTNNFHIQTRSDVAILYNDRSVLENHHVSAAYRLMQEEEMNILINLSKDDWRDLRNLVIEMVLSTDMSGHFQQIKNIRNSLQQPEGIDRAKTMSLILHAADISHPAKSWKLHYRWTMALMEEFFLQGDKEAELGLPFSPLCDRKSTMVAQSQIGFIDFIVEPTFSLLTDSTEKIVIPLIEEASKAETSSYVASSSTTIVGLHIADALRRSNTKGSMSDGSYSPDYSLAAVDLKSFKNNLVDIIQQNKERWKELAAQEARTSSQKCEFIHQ
Sequence of PDE1B (Q01064 whole entry): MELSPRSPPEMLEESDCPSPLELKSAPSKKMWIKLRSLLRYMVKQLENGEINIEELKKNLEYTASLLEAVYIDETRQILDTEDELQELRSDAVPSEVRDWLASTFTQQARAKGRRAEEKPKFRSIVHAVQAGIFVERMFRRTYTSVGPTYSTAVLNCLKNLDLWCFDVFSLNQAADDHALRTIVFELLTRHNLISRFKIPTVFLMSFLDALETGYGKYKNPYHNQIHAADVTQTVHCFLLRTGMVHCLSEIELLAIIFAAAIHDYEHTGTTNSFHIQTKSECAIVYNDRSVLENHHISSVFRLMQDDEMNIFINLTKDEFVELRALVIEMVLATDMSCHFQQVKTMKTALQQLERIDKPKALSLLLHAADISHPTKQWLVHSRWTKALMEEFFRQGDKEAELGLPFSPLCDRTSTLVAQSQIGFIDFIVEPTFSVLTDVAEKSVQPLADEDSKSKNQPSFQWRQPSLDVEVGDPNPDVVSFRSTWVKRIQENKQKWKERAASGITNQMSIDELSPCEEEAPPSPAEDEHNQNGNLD
Sequence of PDE1C (Q14123 whole entry): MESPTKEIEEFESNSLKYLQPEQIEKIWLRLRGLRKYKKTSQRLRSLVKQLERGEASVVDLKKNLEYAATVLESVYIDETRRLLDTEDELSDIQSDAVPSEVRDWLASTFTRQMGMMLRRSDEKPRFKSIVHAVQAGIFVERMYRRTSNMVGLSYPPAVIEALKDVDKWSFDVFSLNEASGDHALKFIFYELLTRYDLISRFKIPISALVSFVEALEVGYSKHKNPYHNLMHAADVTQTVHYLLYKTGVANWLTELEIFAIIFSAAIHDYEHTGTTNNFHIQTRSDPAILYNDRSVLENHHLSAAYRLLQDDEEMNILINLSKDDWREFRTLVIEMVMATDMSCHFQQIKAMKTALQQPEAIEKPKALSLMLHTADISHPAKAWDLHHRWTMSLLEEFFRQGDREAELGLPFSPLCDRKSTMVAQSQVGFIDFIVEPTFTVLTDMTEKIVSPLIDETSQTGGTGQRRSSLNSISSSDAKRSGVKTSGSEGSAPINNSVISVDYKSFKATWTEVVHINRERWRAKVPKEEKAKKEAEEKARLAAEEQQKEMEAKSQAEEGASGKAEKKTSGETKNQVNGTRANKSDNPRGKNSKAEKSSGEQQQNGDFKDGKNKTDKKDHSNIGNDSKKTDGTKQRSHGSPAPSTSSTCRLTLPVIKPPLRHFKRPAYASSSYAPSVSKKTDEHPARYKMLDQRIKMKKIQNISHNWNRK

| Compound | IC50 (PDE1C) [nM] | IC50 (PDE1B) [nM] | IC50 (PDE1A) [nM] | PDE1C inhibition (nM or %): % inhib (PDE1C) [%] | inhibition at 10 µM (PDE1B) [%] | inhibition at 10 µM (PDE1A) [%] |
| --- | --- | --- | --- | --- | --- | --- |
| CCCc1nnc2c(=O)n(Cc3ccc(OC)cc3)c(C)cn12 [7-(4-methoxybenzyl)-6-methyl-3-propyl-[1,2,4]triazolo[4,3-a]pyrazin-8(7H)-one] | 44 | 32 | 66 | – | – | – |
| Cc1cccc(Cc2cn3c(C4CCOCC4)nnc3c(=O)n2CC2CCCCC2)c1 [7-(cyclohexylmethyl)-6-(3-methylbenzyl)-3-(tetrahydro-2H-pyran-4-yl)-[1,2,4]triazolo[4,3-a]pyrazin-8(7H)-one] | 1 | 3 | 2 | – | – | – |
| CC(F)(F)c1nnc2c(=O)n(Cc3cccc(F)c3)ccn12 [3-(1,1-Difluoroethyl)-7-(3-fluorobenzyl)-[1,2,4]triazolo[4,3-a]pyrazin-8(7H)-one] | 550 | 2700 | 2500 | – | – | – |
| CCCCCCn1ccn2c(C3CCOCC3)nnc2c1=O [7-Hexyl-3-(tetrahydro-2H-pyran-4-yl)-[1,2,4]triazolo[4,3-a]pyrazin-8(7H)-one] | 1100 | 1000 | 1260 | – | – | – |
| O=c1c2nnc(C3CCCCC3)n2ccn1Cc1cccc(F)c1 [3-Cyclohexyl-7-(3-fluorobenzyl)-[1,2,4]triazolo[4,3-a]pyrazin-8(7H)-one] | 120 | 590 | 810 | – | – | – |
| CCCc1nnc2c(=O)n(CC3CCC(C)(C)CC3)ccn12 [7-((4,4-dimethylcyclohexyl)methyl)-3-propyl-[1,2,4]triazolo[4,3-a]pyrazin-8(7H)-one] | 110 | 110 | 130 | – | – | – |
| O=c1c2nnc(C3CCOCC3)n2cc(Br)n1CC1CCCC1 [6-bromo-7-(cyclopentylmethyl)-3-(tetrahydro-2H-pyran-4-yl)-[1,2,4]triazolo[4,3-a]pyrazin-8(7H)-one] | 6 | 140 | 164 | – | – | – |
| O=c1c2nnc(C3CCOCC3)n2cc(Cc2ccc(F)cc2)n1CC1CCCCCC1 [7-(cycloheptylmethyl)-6-(4-fluorobenzyl)-3-(tetrahydro-2H-pyran-4-yl)-[1,2,4]triazolo[4,3-a]pyrazin-8(7H)-one] | 4 | 9 | 3 | – | – | – |
| Cc1ccc(Cc2cn3c(C4CCOCC4)nnc3c(=O)n2CC2CCCC2)cc1 [7-(cyclopentylmethyl)-6-(4-methylbenzyl)-3-(tetrahydro-2H-pyran-4-yl)-[1,2,4]triazolo[4,3-a]pyrazin-8(7H)-one] | 3 | 19 | 21 | – | – | – |
| CCCc1nnc2c(=O)n(CC34CC5CC(CC(C5)C3)C4)ccn12 [7-(((3r,5r,7r)-adamantan-1-yl)methyl)-3-propyl-[1,2,4]triazolo[4,3-a]pyrazin-8(7H)-one] | 63 | 210 | 180 | – | – | – |
| CCCc1nnc2c(=O)n(CC3COC3)ccn12 [7-(Oxetan-3-ylmethyl)-3-propyl-[1,2,4]triazolo[4,3-a]pyrazin-8(7H)-one] | – | – | – | 57 | 46 | 37 |
| CCCc1nnc2c(=O)n(CC3CCCCC3C)ccn12 (mixture of isomers) [7-((2-methylcyclohexyl)methyl)-3-propyl-[1,2,4]triazolo[4,3-a]pyrazin-8(7H)-one] | 240 | 260 | 320 | – | – | – |
| O=c1c2nnc(C3CCOC3)n2ccn1Cc1ccc(Cl)cc1 (stereo not drawn) [7-(4-Chlorobenzyl)-3-(tetrahydrofuran-3-yl)-[1,2,4]triazolo[4,3-a]pyrazin-8(7H)-one] | 750 | 840 | 500 | – | – | – |
| O=c1c2nnc(C3CCOCC3)n2cc(Cc2ccccc2)n1Cc1ccc(F)cc1 [6-benzyl-7-(4-fluorobenzyl)-3-(tetrahydro-2H-pyran-4-yl)-[1,2,4]triazolo[4,3-a]pyrazin-8(7H)-one] | 6 | 12 | 15 | – | – | – |
| O=c1c2nnc(CC(F)(F)F)n2ccn1Cc1cccc(F)c1 [7-(3-Fluorobenzyl)-3-(2,2,2-trifluoroethyl)-[1,2,4]triazolo[4,3-a]pyrazin-8(7H)-one] | 380 | 1400 | 2000 | – | – | – |
| CCCc1nnc2c(=O)n(CC(C)C)ccn12 [7-Isobutyl-3-propyl-[1,2,4]triazolo[4,3-a]pyrazin-8(7H)-one] | 970 | 2700 | 3300 | – | – | – |
| CCCc1nnc2c(=O)n(Cc3ccccc3F)ccn12 [7-(2-Fluorobenzyl)-3-propyl-[1,2,4]triazolo[4,3-a]pyrazin-8(7H)-one] | 130 | 1000 | 860 | – | – | – |
| CCCc1nnc2c(=O)n(Cc3ccccc3C(F)(F)F)ccn12 [3-Propyl-7-(2-(trifluoromethyl)benzyl)-[1,2,4]triazolo[4,3-a]pyrazin-8(7H)-one] | – | – | – | 41 | 46 | 44 |
| CCCc1nnc2c(=O)n(CC3CCC(C)CC3)ccn12 (single isomer, unassigned) [7-(((1s,4s)-4-methylcyclohexyl)methyl)-3-propyl-[1,2,4]triazolo[4,3-a]pyrazin-8(7H)-one] | 36 | 24 | 111 | – | – | – |
| O=c1c2nnc(C3CCOCC3)n2ccn1CC1CCCCC1 [7-(Cyclohexylmethyl)-3-(tetrahydro-2H-pyran-4-yl)-[1,2,4]triazolo[4,3-a]pyrazin-8(7H)-one] | 87 | 190 | 220 | – | – | – |
| Cc1ccccc1Cc1cn2c(C3CCOCC3)nnc2c(=O)n1CC1CCCC1 [7-(cyclopentylmethyl)-6-(2-methylbenzyl)-3-(tetrahydro-2H-pyran-4-yl)-[1,2,4]triazolo[4,3-a]pyrazin-8(7H)-one] | 23 | 260 | 251 | – | – | – |
| CC(C)CCn1ccn2c(C3CCOCC3)nnc2c1=O [7-isopentyl-3-(tetrahydro-2H-pyran-4-yl)-[1,2,4]triazolo[4,3-a]pyrazin-8(7H)-one] | 1100 | – | – | – | 55 | 47 |
| CCCc1nnc2c(=O)n(Cc3cccc(F)c3)c([C@H]3CCOC3)cn12 (single isomer, unassigned) | 290 | 1800 | 2980 | – | – | – |
| CCCc1nnc2c(=O)n(Cc3cccc(F)c3)c(C)cn12 [7-(3-fluorobenzyl)-6-methyl-3-propyl-[1,2,4]triazolo[4,3-a]pyrazin-8(7H)-one] | 46 | 190 | 236 | – | – | – |
| O=c1c2nnc(C3CCOCC3)n2cc(Cc2ccc(F)cc2)n1CC1CCCCC1 [7-(cyclohexylmethyl)-6-(4-fluorobenzyl)-3-(tetrahydro-2H-pyran-4-yl)-[1,2,4]triazolo[4,3-a]pyrazin-8(7H)-one] | 6 | 17 | 12 | – | – | – |
| CCCc1nnc2c(=O)n(Cc3cccc(F)c3)cc([C@@H]3CCOC3)n12 (single isomer, unassigned) | 260 | 1000 | 1780 | – | – | – |
| O=c1c2nnc([C@H]3CC[C@H](O)CC3)n2ccn1Cc1cccc(F)c1 [7-(3-Fluorobenzyl)-3-((1r,4r)-4-hydroxycyclohexyl)-[1,2,4]triazolo[4,3-a]pyrazin-8(7H)-one] | 200 | 630 | 1000 | – | – | – |
